In patent US11407756B2, “Heterocyclic compounds and noxious arthropod control agent containing same” (SUMITOMO CHEMICAL COMPANY, LIMITED, priority 2017, dated 2022):

Test system: German cockroaches (Blattella germanica)
Test: Test method 8: treated filter paper with sucrose, male adult German cockroaches
Format: in vivo
Settings: 500 ppm, 0.7 mL on filter paper, after 6 days, 25° C.
Description: Next, Test Examples are used to show effects of the Present compounds X on harmful arthropods. In the following Test Examples, the tests were carried out at 25° C.
Each test compound is formulated according to the process described in the Formulation Example 5 to obtain each formulation, and water is added thereto to prepare a diluted solution containing a prescribed concentration of each test compound.
A filter paper having a diameter of 5.5 cm is lined with the inside bottom of a cup having a diameter of 5.5 cm, each of said diluted solutions (0.7 mL) is added dropwise on the filter paper, and sucrose (30 mg) is homogeneously placed into said cup as a feed. Two (2) male adult German cockroaches (Blattella germanica) are released into said cup, and the cup is covered. After 6 days, life and death of the German cockroach are examined, the number of the dead insects is counted, and the mortality of insects is calculated by the following equation. Mortality(%)=(Number of dead insects/Number of test insects)×100

## CCS(=O)(=O)c1cc(OC(C)C)cnc1-n1ccc2nc(C(F)(F)F)cn2c1=O [compound 12]
  mortality: 100%
